Measured values: US12304933B2, “Disease treatment drug based on mesenchymal-stem-cell mobilization” (StemRIM Inc., priority 2018, dated 2025)

Columns and labels:
[1] = tested on: mesenchymal stem cells in peripheral blood; assay: Solid-phase culture of peripheral blood after administration of HMGB1 peptide 1-44 (earlier experiments of the inventors); assay type: in vivo
Description: In addition, the colonies obtained as a result of culturing, on a solid phase, peripheral blood after administration of a peptide consisting of amino acid residues 1-44 of the human HMGB1 protein (hereinafter, HMGB1 peptide 1-44), which has an activity of mobilizing mesenchymal stem cells into peripheral blood, have been confirmed to have adherability to solid phase and self-renewal ability, and to be PDGFRα positive. They have also been confirmed to have a gene expression profile characteristic to mesenchymal stem cells, based on the results of clustering the transcriptome analysis data and performing gene ontology analysis.
Furthermore, it has been confirmed that the number of colonies obtained by solid-phase culture is larger in the peripheral blood after administration of HMGB1 peptide 1-44 than in the peripheral blood after administration of physiological saline.

psoriasis model mice = assay: Auricular thickness in imiquimod-induced psoriasis model mice; assay type: in vivo, C57BL/6 mice; settings: 5% imiquimod cream on auricular skin once a day for seven days; 5 mg/kg/day peptide into tail vein for seven days; n=4; FIG. 9
Method: To induce psoriasis by imiquimod, a cream containing 5% imiquimod (Beseruna cream 5%, Mochida Pharmaceutical Co., Ltd.) was used. In the drawing corresponding to the Example of the present application, imiquimod is referred to as IMQ. In addition, the peptide NP-3 (TFA salt) described in Example 1 was used as a test substance.
C57BL/6 mice (7 weeks old, female, body weight about 20 g) were prepared. To induce psoriasis, a cream containing 5% imiquimod was applied on the auricular skin of the mice at an amount of 25 mg/ear/day (1.25 mg/ear/day imiquimod) once a day for seven days. Moreover, mice without imiquimod application (hereinafter, referred to as “normal mice”) were used as a comparison target.
The psoriasis model mice prepared as described above were divided into a peptide-administered group (n=4) and a control group (n=4). […]
During the test period, the auricle thickness of mice was measured daily using a micrometer (manufactured by Mitutoyo Co., Ltd., Product No. CLM1-15QM), and the size of change from the auricle thickness before the start of imiquimod application (Day 0) was calculated. The degree of skin thickening was evaluated using the size of change as an index.

Substance | number of colonies obtained by solid-phase culture of peripheral blood, compared with peripheral blood after administration of physiological saline [1] | increase in auricular thickness as compared with the control group (psoriasis model mice)
HMGB1 peptide 1-44: peptide consisting of amino acid residues 1-44 of the human HMGB1 protein, which has an activity of mobilizing mesenchymal stem cells into peripheral blood (MGKGDPKKPRGKMSSYAFFVQTCREEHKKKHPDASVNFSEFSKK; UniProt P09429 1-44, looked up, fragment) | larger | –
NP-3: Chemically synthesized fragment peptide of mouse YBX1 protein, positions 174-203, SEQ ID NO: 37 (SAPEGQAQQRRPYRRRRFPPYYMRRPYARR; listed as Mus musculus) | – | suppressed
